From ChEMBL document CHEMBL4831528, “Discovery of Novel Pterostilbene-Based Derivatives as Potent and Orally Active NLRP3 Inflammasome Inhibitors with Inflammatory Activity for Colitis” (J Med Chem, 2021)
Calls of active or inactive are those of the source. The rule behind the calls is not given here.

Columns and labels:
[1] = test system: L02; assay: Cytotoxicity against human L-02 cells incubated for 24 hrs by MTT assay; format: cell-based; conditions: L02, 24 h
[2] = biological target: NACHT, LRR and PYD domains-containing protein 3 (Mus musculus) (UniProt Q8R4B8); assay: (§1) Inhibition of NLRP3 inflammasome activation in LPS-stimulated mouse J774A.1 cells assessed as inhibition of cell pyrolysis at 20 uM incubated for 1 hr followed by ATP addition and measured after 30 mins by Hoechst 33342/propidium iodide staining based high content screening method relative to control; conditions: J774.A1, time 1.5 hrs
[3] = biological target: NACHT, LRR and PYD domains-containing protein 3 (Mus musculus, UniProt Q8R4B8); assay: Inhibition of NLRP3 inflammasome activation in LPS-stimulated mouse bone marrow-derived macrophages assessed as reduction in IL-1beta secretion preincubated for 30 mins followed by nigericin addition and measured after 30 mins by ELISA; format: tissue-based, Macrophage
[4] = test system: Macrophage; assay: Inhibition of NFkappaB activation in LPS-stimulated mouse bone marrow-derived macrophages assessed as reduction in TNFalpha secretion preincubated for 30 mins followed by nigericin addition and measured after 30 mins by ELISA; format: tissue-based; conditions: time 60.0 min
[5] = biological target: NACHT, LRR and PYD domains-containing protein 3 (Mus musculus) (UniProt Q8R4B8); assay: as §1, with “10” for “20”; conditions: J774.A1, time 1.5 hrs
[6] = test system: Mus musculus; assay: Protection against DSS-induced acute ulcerative colitis in C57BL/6 mouse assessed as reduction in adhesion of colon at 20 mg/kg, ig administered for 7 days; format: functional, organism-based; conditions: time 7.0 day
[7] = Toxicity in C57BL/6 mouse assessed as effect on diet at 10 to 20 mg/kg, ig administered for 28 days; format: organism-based; conditions: in vivo, po, 672 h, dose 10-20 mg/kg, time 28 day
[8] = Toxicity in C57BL/6 mouse assessed as effect on activity at 10 to 20 mg/kg, ig administered for 28 days; format: organism-based; conditions: in vivo, po, 672 h, dose 10-20 mg/kg, time 28 day
[9] = Toxicity in C57BL/6 mouse assessed as effect on spirit at 10 to 20 mg/kg, ig administered for 28 days; format: organism-based; conditions: in vivo, po, 672 h, dose 10-20 mg/kg, time 28 day
[10] = Toxicity in C57BL/6 mouse assessed as effect on fur at 10 to 20 mg/kg, ig administered for 28 days; format: organism-based; conditions: in vivo, po, 672 h, dose 10-20 mg/kg, time 28 day
[11] = test system: Mus musculus; assay: Anti-inflammatory activity in C57BL/6 mouse DSS-induced acute ulcerative colitis assessed as reduction in disease index at 10 to 20 mg/kg, ig administered for 7 days; format: functional, organism-based; conditions: dose 10-20 mg/kg, time 7.0 day
[12] = Toxicity in C57BL/6 mouse assessed as reduction in survival rate at 20 mg/kg, ig administered for 28 days; format: organism-based; conditions: in vivo, po, 672 h, time 28 day
[13] = test system: Mus musculus; assay: In vivo inhibition of NLRP3 inflammasome activation in C57BL/6 mouse assessed as reduction in MPO activity at 10 mg/kg, ig administered for 7 days by ELISA; format: functional, organism-based; conditions: time 7.0 day
[14] = test system: Mus musculus; assay: In vivo inhibition of NLRP3 inflammasome activation in C57BL/6 mouse assessed as reduction in MPO activity at 20 mg/kg, ig administered for 7 days by ELISA; format: functional, organism-based; conditions: time 7.0 day
[15] = Hepatic clearance in human liver microsomes preincubated for 5 mins followed by NADPH addition and measured after 5 to 60 mins by LC-MS/MS analysis; format: ADME, Microsome; conditions: time 5-60 min
[16] = Intrinsic clearance in human liver microsomes preincubated for 5 mins followed by NADPH addition and measured after 5 to 60 mins by LC-MS/MS analysis; format: ADME, Microsome; conditions: time 5-60 min, read-out: CLH
[17] = Intrinsic clearance in mouse liver microsomes preincubated for 5 mins followed by NADPH addition and measured after 5 to 60 mins by LC-MS/MS analysis; format: ADME, Microsome; conditions: time 5-60 min, read-out: CLH
[18] = Hepatic clearance in mouse liver microsomes preincubated for 5 mins followed by NADPH addition and measured after 5 to 60 mins by LC-MS/MS analysis; format: ADME, Microsome; conditions: time 5-60 min
[19] = Half life in human liver microsomes preincubated for 5 mins followed by NADPH addition and measured after 5 to 60 mins by LC-MS/MS analysis; format: ADME, Microsome
[20] = Half life in mouse liver microsomes preincubated for 5 mins followed by NADPH addition and measured after 5 to 60 mins by LC-MS/MS analysis; format: ADME, Microsome; conditions: time 5-60 min

Sequence of NACHT, LRR and PYD domains-containing protein 3 (Mus musculus) (Q8R4B8 whole entry, the tested form may be a part): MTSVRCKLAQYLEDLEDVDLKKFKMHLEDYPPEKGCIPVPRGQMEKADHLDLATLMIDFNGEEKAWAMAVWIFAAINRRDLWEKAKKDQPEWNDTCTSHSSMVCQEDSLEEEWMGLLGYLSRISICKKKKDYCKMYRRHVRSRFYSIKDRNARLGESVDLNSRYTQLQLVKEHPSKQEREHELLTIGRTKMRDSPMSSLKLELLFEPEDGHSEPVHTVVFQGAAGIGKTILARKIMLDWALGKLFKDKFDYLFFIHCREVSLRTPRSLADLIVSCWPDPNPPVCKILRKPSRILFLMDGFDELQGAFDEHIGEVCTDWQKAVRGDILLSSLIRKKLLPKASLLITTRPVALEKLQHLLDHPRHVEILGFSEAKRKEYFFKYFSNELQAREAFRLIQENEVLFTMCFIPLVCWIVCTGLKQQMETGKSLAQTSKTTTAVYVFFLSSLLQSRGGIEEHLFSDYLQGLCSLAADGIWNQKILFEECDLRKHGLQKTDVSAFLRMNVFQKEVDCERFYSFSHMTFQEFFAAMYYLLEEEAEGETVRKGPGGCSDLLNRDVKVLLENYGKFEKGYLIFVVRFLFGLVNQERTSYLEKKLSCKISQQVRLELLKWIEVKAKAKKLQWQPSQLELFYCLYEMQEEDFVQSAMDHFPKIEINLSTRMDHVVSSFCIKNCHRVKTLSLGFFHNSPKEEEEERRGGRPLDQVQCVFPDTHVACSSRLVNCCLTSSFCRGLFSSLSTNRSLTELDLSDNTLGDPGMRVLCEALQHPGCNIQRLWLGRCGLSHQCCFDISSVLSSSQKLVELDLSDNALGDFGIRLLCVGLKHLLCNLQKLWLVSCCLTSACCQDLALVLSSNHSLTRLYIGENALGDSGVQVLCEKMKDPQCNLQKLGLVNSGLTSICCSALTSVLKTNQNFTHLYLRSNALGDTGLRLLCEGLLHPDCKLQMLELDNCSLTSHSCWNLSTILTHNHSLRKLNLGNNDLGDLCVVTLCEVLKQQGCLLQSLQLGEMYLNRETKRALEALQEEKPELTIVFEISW
Sequence of NACHT, LRR and PYD domains-containing protein 3 (Q8R4B8 whole entry, the tested form may be a part): as above

Row | SMILES | IC50 [1] [µM] | inhibition [2] [%] | IC50 [3] [µM] | inhibition [5] [%] | other results
1 | COc1cc(/C=C/c2ccc(O)cc2)cc(OC)c1 [PTEROSTILBENE] | > 100 | 21.2 | > 10 |  | inhibition [4]: Active
2 | C=C1C(=O)[C@]23[C@H](O)[C@H]1CC[C@H]2[C@@]12CO[C@]3(O)[C@@H](O)[C@@H]1C(C)(C)CC[C@@H]2O [ORIDONIN] | 38.2 | 83.3 | 0.81 | 69.5 | 
3 | CCCCNC(=O)COc1ccc(/C=C/c2cc(OC)cc(OC)c2/C=C/[N+](=O)[O-])cc1 | > 100 | 70.1 | 7.18 | 40.9 | 
4 | COc1cc(/C=C/c2ccc(OCC(=O)NCc3ccccc3)cc2)c(-c2cnn[nH]2)c(OC)c1 | > 100 | 31.6 | > 10 | 19.4 | 
5 | COc1cc(/C=C/c2ccc(N)cc2)c(/C=C/[N+](=O)[O-])c(OC)c1 | 85.1 | 75.3 | 1.37 | 54.7 | Activity [6]: Active; Activity [7]: Toxic; Activity [8]: Toxic; Activity [9]: Toxic; Activity [10]: Toxic; Activity [11]: Active; Activity [12]: Toxic; inhibition [13]: Active; inhibition [14]: inactive
6 | O=[N+]([O-])/C=C/c1ccc2c(c1)OCO2 | 41.1 | 89.2 | 2.31 | 70.6 | 
7 | COc1ccc2c(c1)[C@]13CCCC[C@@H]1[C@H](C2)N(C)CC3 [DEXTROMETHORPHAN] |  |  |  |  | CLhep predicted [15]: 14.8 mL/min/kg; microsomal CLint [16]: 44.5 µL/min/mg; microsomal CLint [17]: 83.3 µL/min/mg; CLhep predicted [18]: 70.6 mL/min/kg; half-life [19]: 31.2 min; half-life [20]: 16.6 min
8 | COc1cc(/C=C/c2ccc(O)cc2)c(/C=C/[N+](=O)[O-])c(OC)c1 | > 100 | 31.5 | > 10 | 13.3 | 
